{"source": "paper PMC6272893", "about": "“NO-Releasing Enmein-Type Diterpenoid Derivatives with Selective Antiproliferative Activity and Effects on Apoptosis-Related Proteins” (Molecules, 2016)", "key": {"[1]": {"tested_on": "apoptosis-related proteins in Bel-7402 cells", "test": "Western blot of apoptosis-related proteins", "format": "cell-based, human", "conditions": "10f 1.0, 1.5 and 2.0 μM, 48 h, concentration-dependent", "protocol": "Bel-7402 cells were incubated in triplicate with different doses (1.0, 1.5 and 2.0 μM) of 10f for 48 h. After the protein concentrations were determined, individual cell lysates were separated by sodium dodecyl sulfate polyacrylamide gel electrophoresis (10% gel, SDS-PAGE) and transferred onto nitrocellulose membranes. After being blocked with 5% fat-free milk, the target proteins in the membranes were probed with monoclonal anti-Bax (KGA714), anti-Bcl2 (KGA715), anti-caspase 3 (KGA717), anti-caspase 9 (KGA720), anti-cyto C (KGA723), and anti-β-actin antibodies (KGA731, KeyGEN Biotech, Nanjing, China), respectively. The relative levels of each signaling event to control β-actin were determined by densimetric scanning.\nFigure 7 Western blotting of 10f on the expression of apoptosis-related proteins in Bel-7402 cells. 1: negative control; 2: 2.0 μM; 3: 1.5 μM; 4: 1.0 μM."}, "L-02 normal liver cells": {"tested_on": "L-02 normal liver cells", "test": "MTT antiproliferative assay, L-02", "format": "cell-based", "protocol": "[The source words this procedure for another cell line and reports this cell line under the same test.] (§1) Cytotoxicity assay in vitro was employed by the MTT assay following the methodology described previously, which was performed in flat-bottomed 96-well plates. In short, exponentially growing MGC-803 cells at the log phase were added to each well at a density of 5 × 10^3 per well, then treated with serial dilutions of the compounds in three replicates at various concentrations (0.039–40 µg/mL). After 72 h, 20 µL of MTT solution (5 mg/mL) per well was added to each cultured medium. Then, DMSO was added to each well (150 µL/well). After 10 min at room temperature, the absorbance (OD) was read on a microplate reader at the wavelength of 490 nm (BIO-RAD Instruments Inc. 550, Hercules, CA, USA). In these experiments, taxol was used as the positive reference with the concentration of 10 µg/mL."}, "CaEs-17 cells": {"tested_on": "CaEs-17 cells", "test": "MTT antiproliferative assay, CaEs-17", "format": "cell-based, human", "protocol": "[The source words this procedure for another cell line and reports this cell line under the same test.] as §1"}, "Bel-7402 cells [2]": {"tested_on": "Bel-7402 cells", "test": "Cell cycle study by PI flow cytometry", "format": "cell-based, human", "conditions": "for G2 phase cells: control 20.72%; for cells at the S phase: control 34.65%", "protocol": "Progression through the cell cycle was assessed by flow cytometry DNA determination with PI. Bel-7402 cells were plated in 6-well plates (5.0 × 10^3 cells/well) and incubated at 37 °C for 24 h. Exponentially growing cells were then incubated with tested compound at a certain concentration in triplicate. Untreated cells (control) or cells treated with the solvent (DMSO) of the compound were included. After 48 h treatment, cells were centrifuged and fixed in 70% ethanol at 4 °C overnight and subsequently resuspended in PBS containing 100 μL RNase A and 400 μL PI. Cellular DNA content, for cell cycle distribution analysis, was measured using a flow cytometer (FACS Calibur Becton-Dickinson, Franklin Lake, NJ, USA).\nFigure 4 Influence of the cell cycle arrest of S phase by 10f in Bel-7402 cells: Bel-7402 cells were incubated with the indicated concentrations of 10f for 24 h and the cells were stained with propidium iodide (PI). Cellular DNA content, for cell cycle distribution analysis, was measured using a flow cytometer. The diagrams show the distribution of the cells according to their DNA content. The inserts give the percentages of cells in different cell cycle phases. TEXT PRINTED IN THE PICTURE: Control group: G1: 44.64%; S: 34.65%; G2: 20.72% | no label printed: G1: 42.41% (1 μM); S: 40.27% (1 μM); G2: 17.32% (1 μM); G1: 43.10% (1.5 μM); S: 48.11% (1.5 μM); G2: 8.79% (1.5 μM); G1: 40.63% (2 μM); S: 53.34% (2 μM); G2: 6.02% (2 μM) DOUBTS OF THE COPYIST ABOUT THIS PICTURE: The picture prints no label for the treated substance, only the concentrations 1 μM, 1.5 μM and 2 μM, so the substance is left blank and the concentrations are given as conditions. / Control group is an untreated reference, not a substance. It is listed because the picture prints its values under that label."}, "Bel-7402 cells [3]": {"tested_on": "Bel-7402 cells", "test": "MTT antiproliferative assay, Bel-7402", "format": "cell-based, human", "protocol": "[The source words this procedure for another cell line and reports this cell line under the same test.] as §1"}, "Bel-7402 cells [4]": {"tested_on": "Bel-7402 cells", "test": "Mitochondrial membrane potential assay (JC-1)", "format": "cell-based, human", "conditions": "48 h, control 3.28%", "protocol": "[…] The percentage of cells with healthy or collapsed mitochondrial membrane potentials was monitored by flow cytometry analysis.\nFigure 6 Effect of 10f on the mitochondrial membrane potentials of Bel-7402 cells: Bel-7402 cells were incubated with the indicated concentrations of 10f for 48 h prior to staining with JC-1. […] In each plot the first value is in the upper right quadrant and the second in the lower right quadrant."}, "K562 cells": {"tested_on": "K562 cells", "test": "MTT antiproliferative assay, K562", "format": "cell-based, human", "protocol": "[The source words this procedure for another cell line and reports this cell line under the same test.] as §1"}, "Bel-7402 cells [5]": {"tested_on": "Bel-7402 cells", "test": "Annexin V-FITC/PI apoptosis assay", "format": "cell-based, human", "conditions": "24 h, control 8.27%", "protocol": "The Bel-7402 cells were seeded in 6-well plates to grow overnight, and then treated with or without 10f at indicated concentrations in triplicate for 24 h. Cells were then washed twice in PBS and resuspended in annexin V binding buffer. Annexin V-FITC was then added and the mixture was incubated for 15 min under dark conditions at 25 °C. PI was added just prior to acquisition. Apoptosis was analyzed using annexin V and PI double-staining by flow cytometry according to the manufacturer’s instructions in order to detect apoptotic cells.\nFigure 5 Apoptosis in Bel-7402 cells by treatment with 10f: Bel-7402 cells were incubated with different concentrations of 10f for 24 h and the cells were stained with annexin V-FITC and PI, followed by flow cytometry analysis. TEXT PRINTED IN THE PICTURE: Control: 2.67%; 2.37%; 89.06%; 5.90% | no label printed: 2.07% (1.0 μM); 4.15% (1.0 μM); 74.53% (1.0 μM); 19.26% (1.0 μM); 5.69% (1.5 μM); 15.20% (1.5 μM); 55.99% (1.5 μM); 23.12% (1.5 μM); 3.33% (2.0 μM); 26.65% (2.0 μM); 37.87% (2.0 μM); 32.15% (2.0 μM) DOUBTS OF THE COPYIST ABOUT THIS PICTURE: The picture prints no compound label for the treated plots, only the concentrations 1.0 μM, 1.5 μM and 2.0 μM, so the substance is left empty. / The picture prints no measure or quadrant name for the percentages. Each plot's values are given in the order upper left, upper right, lower left, lower right."}, "MGC-803 cells": {"tested_on": "MGC-803 cells", "test": "MTT antiproliferative assay, MGC-803", "format": "cell-based, human", "protocol": "as §1"}}}
{"smiles": "C=C1C(=O)C23C(=O)OC4CCC(C)(C)C5C(=O)OCC45C2CCC1C3OC(=O)c1ccccc1C(=O)OCCCOc1no[n+]([O-])c1S(=O)(=O)c1ccccc1", "note": "(stereo not shown) [Compound 10f]", "values": [{"measurement": "anti-apoptotic Bcl-2 expression", "setting": "[1]", "value": "downregulation"}, {"measurement": "expression of proapoptotic caspase-3, -8, -9, Bax, FAS, and cytochrome c", "setting": "[1]", "value": "upregulation"}, {"measurement": "IC50", "setting": "L-02 normal liver cells; MTT, 72 h, mean ± S.D. of three experiments, read-out: antiproliferative activity IC50, L-02", "value": "29.9 ± 1.4", "unit": "µM"}, {"measurement": "SI (selectivity index)", "setting": "L-02 normal liver cells; selectivity between tumor and normal liver cells", "value": 36.9}, {"measurement": "IC50", "setting": "CaEs-17 cells; Homo sapiens, CaEs17, MTT, 72 h, mean ± S.D. of three experiments", "value": "3.77 ± 0.3", "unit": "µM"}, {"measurement": "fold stronger than 1, CaEs-17", "setting": "CaEs-17 cells; IC50 compared with 1", "value": 1.9, "unit": "fold"}, {"measurement": "fold stronger than 9, CaEs-17", "setting": "CaEs-17 cells; IC50 compared with 9", "value": 5.3, "unit": "fold"}, {"measurement": "melting point", "value": "151 to 154", "unit": "°C"}, {"measurement": "G2 phase cells", "setting": "Bel-7402 cells [2]; 10f 1.0 μM", "value": 17.32, "unit": "%"}, {"measurement": "cells at the S phase", "setting": "Bel-7402 cells [2]; 10f 1.0 μM", "value": 40.27, "unit": "%"}, {"measurement": "G2 phase cells", "setting": "Bel-7402 cells [2]; 10f 1.5 μM", "value": 8.79, "unit": "%"}, {"measurement": "cells at the S phase", "setting": "Bel-7402 cells [2]; 10f 1.5 μM", "value": 48.11, "unit": "%"}, {"measurement": "G2 phase cells", "setting": "Bel-7402 cells [2]; 10f 2.0 μM", "value": 6.02, "unit": "%"}, {"measurement": "cells at the S phase", "setting": "Bel-7402 cells [2]; 10f 2.0 μM", "value": 53.34, "unit": "%"}, {"measurement": "IC50", "setting": "Bel-7402 cells [3]; Homo sapiens, Bel-7402, MTT, 72 h, mean ± S.D. of three experiments", "value": "0.81 ± 0.06", "unit": "µM"}, {"measurement": "fold stronger than 1, Bel-7402", "setting": "Bel-7402 cells [3]; IC50 compared with 1", "value": 8.2, "unit": "fold"}, {"measurement": "fold stronger than 9, Bel-7402", "setting": "Bel-7402 cells [3]; IC50 compared with 9", "value": 18.7, "unit": "fold"}, {"measurement": "cells with collapsed mitochondrial membrane potentials", "setting": "Bel-7402 cells [4]; 10f 0.5 μM", "value": 17.76, "unit": "%"}, {"measurement": "cells with collapsed mitochondrial membrane potentials", "setting": "Bel-7402 cells [4]; 10f 1.5 μM", "value": 33.44, "unit": "%"}, {"measurement": "cells with collapsed mitochondrial membrane potentials", "setting": "Bel-7402 cells [4]; 10f 2.0 μM", "value": 47.63, "unit": "%"}, {"measurement": "IC50", "setting": "K562 cells; Homo sapiens, K562, MTT, 72 h, mean ± S.D. of three experiments", "value": "1.73 ± 0.04", "unit": "µM"}, {"measurement": "fold stronger than 1, K562", "setting": "K562 cells; IC50 compared with 1", "value": 1.8, "unit": "fold"}, {"measurement": "apoptotic cell rates (early and late)", "setting": "Bel-7402 cells [5]; 10f 1.0 μM", "value": 23.41, "unit": "%"}, {"measurement": "apoptotic cell rates (early and late)", "setting": "Bel-7402 cells [5]; 10f 1.5 μM", "value": 38.32, "unit": "%"}, {"measurement": "apoptotic cell rates (early and late)", "setting": "Bel-7402 cells [5]; 10f 2.0 μM", "value": 58.80, "unit": "%"}, {"measurement": "IC50", "setting": "MGC-803 cells; Homo sapiens, MGC-803, MTT, 72 h, mean ± S.D. of three experiments", "value": "1.18 ± 0.1", "unit": "µM"}, {"measurement": "fold stronger than 1, MGC-803", "setting": "MGC-803 cells; IC50 compared with 1", "value": 3.8, "unit": "fold"}, {"measurement": "fold stronger than 9, MGC-803", "setting": "MGC-803 cells; IC50 compared with 9", "value": 3.9, "unit": "fold"}]}
